In patent US20250268844A1, “ANTICANCER AGENTS BASED ON CYCLOPENTENONES” (UNIVERSITY OF CRETE, priority 2022, published 2025):

Tested on: MB49 mouse bladder carcinoma tumors
Assay: Subcutaneous MB49 tumor growth in C57BL/6 mice
Assay type: in vivo
Settings: C57BL/6 female mice; 5 mg/kg intratumorally on days 7, 10, 14 and 20; vs saline
Experimental: The in vivo anti-tumor effect of Enones was determined by xenotransplantation of MB49 mouse bladder carcinoma cells in syngeneic, immunocompetent C57BL/6 female mice.
On this basis, the in vivo anti-tumor activity of Enone-2 was tested. Female mice were transplanted subcutaneously with 10^6 MB49 cells which formed tumors of approx. 40-60 mm^2 size by day 7. Mice were randomly separated in 2 groups of 5 animals each and injected intratumorally with 50 μl Enone-2 to achieve 5 mg/kg drug dose on days 7, 10, 14 and 20. The tumor size was monitored using a digital caliper and expressed in mm^2 by multiplying the length (the longest diameter) with the width (the shortest diameter perpendicular to length) of the tumor.

## C[C@@]1(O)C=CC(=O)[C@H]1c1ccc(F)c2ccccc12 (stereo in doubt) [Enone-2, 5-(4-fluoronaphthalen-1-yl)-4-hydroxy-4-methylcyclopent-2-en-1-one]
  subcutaneous tumor growth (tumor size): arrested tumor growth
